From US8987320B2, “Solid salt forms of a pyrrole substituted 2-indolinone” (Zoetis LLC, priority 2005, dated 2015) come the findings set out here.

For this assay, the system named is recurrent mast cell tumors. The experiment in a line: Multicenter, placebo-controlled, double blind, randomized study in dogs with recurrent mast cell tumors. Format: in vivo. Here is the method:
Purpose. The effectiveness of Compound I phosphate oral tablets for the treatment of mast cell tumors in client-owned animals that had recurrent measurable disease after surgery was evaluated in a masked, negative controlled study. The study evaluated every-other-day dosing of Compound I phosphate at 3.25 mg free base equivalents (FBE)/kg body weight on disease response using modified (RECIST) criteria of response. The presence or absence of c-kit mutation in mast cell tumors was evaluated as a covariate in this study. For decision-making purposes, the duration of the study was 6 weeks.
One-hundred-fifty-three (153) dogs were randomized in a ratio of 4:3 into one of two treatment groups: T01 (Placebo in which n=65) and T02 (Compound I phosphate in which n=88). Ten veterinary oncology practices in the United States were selected and enrolled cases. For enrollment, dogs had to have recurrent mast cell tumor (at least one target lesion had to have a minimum longest diameter of 20 mm)±regional lymph node involvement. A maximum of three target lesions (measurable mast cell tumors) and all non-target lesions (all remaining lesions, measurable or un-measurable) were identified at baseline by two evaluators. Efficacy was based on the objective response (complete response or partial response) at the week 6 visit where the mean of the two evaluators sum of the longest diameter of target lesions (Mean Sum LD) was compared to the Baseline Mean Sum LD for calculation of percent reduction or increase. Assessment of non-target lesions was subjective. A complete response (CR) was defined as the disappearance of all target and non-target lesions and the appearance of no new lesions; a partial response (PR) was defined as at least a 30% decrease in the Mean Sum LD of target lesions compared to the Baseline Mean Sum LD and non-progression of non-target lesions and appearance of no new lesions. Tissue samples from the tumor and distant normal skin were collected prior to randomization and submitted for the assessment of c-kit mutation status.

Each structure is given as a SMILES string.

For `Cc1[nH]c(/C=C2\C(=O)Nc3ccc(F)cc32)c(C)c1C(=O)NCCN1CCCC1` [Compound I phosphate], the “animals that experienced progressive disease” value (3.25 mg FBE/kg every other day, 6 weeks, 29/86) is reported as 33.7%. Besides, where the note is “3.25 mg FBE/kg every other day, oral tablets, week 6, 33/86”, the “objective response rate (complete or partial response)” value turned out to be 38.3%. Moreover, the “objective response, dogs positive for the c-kit mutation” value (T02 group, 12/20) is 60%. For the same compound, the “objective response, dogs negative for the c-kit mutation” value (T02 group, 21/64) was determined as 32.8%.
